Source: BigSolDB 2.1

O=C(Nc1ccccc1)c1ccccc1O
solubility (mole fraction)
Settings | 283.15 K | 288.15 K | 293.15 K | 298.15 K | 303.15 K | 308.15 K | 313.15 K | 318.15 K | 323.15 K
in methyl acetate | 0.0366 | 0.0408 | 0.0443 | 0.05 | 0.0568 | 0.0658 | 0.0766 | 0.0879 | 0.101
in n-butanol | 0.013 | 0.0155 | 0.0178 | 0.021 | 0.0247 | 0.0292 | 0.0346 | 0.0403 | 0.0467
in n-butyl acetate | 0.028 | 0.0311 | 0.0349 | 0.0388 | 0.0435 | 0.049 | 0.0545 | 0.061 | 0.0686
in n-pentanol | 0.014 | 0.0157 | 0.0181 | 0.0206 | 0.0238 | 0.0281 | 0.0338 | 0.0396 | 0.0459
in n-propanol | 0.0134 | 0.0168 | 0.0199 | 0.0229 | 0.0266 | 0.0314 | 0.0363 | 0.0418 | 0.0479
in n-propyl acetate | 0.0303 | 0.0347 | 0.0378 | 0.0435 | 0.0483 | 0.0542 | 0.0616 | 0.0703 | 0.0796
